Measurements reported in ChEMBL document CHEMBL5500384, “New synergistic benzoquinone scaffolds as inhibitors of mycobacterial cytochrome bc1 complex to treat multi-drug resistant tuberculosis” (Eur J Med Chem, 2024).
In brackets after ≈: the same amount, converted by molar mass.

System: Mycobacterium tuberculosis
Experiment: Antitubercular activity against Mycobacterium tuberculosis H37Rv incubated for 5 days by microtiter plate method
Assay type: functional
Settings: 120 h, time 5 day

Row | SMILES | MIC [µg/mL]
1 | O=C1C(Cl)=C(N2C(=O)C(Cl)C2c2cccc([N+](=O)[O-])c2)C(=O)c2ccccc21 (stereo not drawn) | 12.5 (≈ 30 µM)
2 | O=C1C(Cl)=C(N2C(=O)C(Cl)C2c2ccccc2)C(=O)c2ccccc21 (stereo not drawn) | 6.25 (≈ 16.8 µM)
3 | O=C1C(Cl)=C(/N=C/c2ccc([N+](=O)[O-])cc2)C(=O)c2ccccc21 | 12.5 (≈ 36.7 µM)
